Reference: US20160122387A1, “Angiotensin Peptide and Pharmaceutical Compositions for Disease Treatment” (UNIVERSIDADE FEDERAL DE MINAS GERAIS - UFMG, priority 2012, published 2016)

Tested on: protein kinase B (AKT)
Test: Activation (Ser473 phosphorylation) of AKT in neonatal rat cardiomyocytes, Western blot
Type: cell-based
Conditions: cardiomyocyte cells, 10^−9 mol/L, five minutes
Experimental: Wistar neonatal rat cardiomyocytes were cultured in regular growth medium consisting of DEMEM medium supplemented with 10% horse serum, 5% fetal bovine serum, 1% penicillin/streptomycin and 0.1% fibroblast inhibitor. The cells were maintained in serum free medium for three hours before the start of treatment. The study was carried out acutely, for five minutes using a concentration of 10^−9 mol/L of the following drugs diluted in culture medium: Ang-(1-7), arg0-Ang-(1-7) and insulin. Cells incubated with culture medium only were used as control group.
Total protein was isolated from cardiomyocytes cells with lysis buffer containing protease inhibitors cocktail (Days-Peixoto et al., Hypertension 52: 542-548, 2008). Sixty micrograms of total protein was separated by electrophoresis, transferred to a nitrocellulose membrane, blocked with 5% skimmed milk powder diluted in Tris-saline containing 0.1% Tween, and finally incubated overnight with anti-AKT polyclonal antibody (1:1000), anti-Ser473 phospho-Akt (1:600), anti-glyceraldehyde-3-phosphate dehydrogenase (GAPDH—1:1000). Subsequently, the membranes were incubated with fluorescently labeled secondary antibody (1:10000), followed by identification and quantitation by the Odyssey program (LI-COR).
The results are presented as mean+E.PM. […]

## Asp-Arg-Val-Tyr-Ile-His-Pro [Ang-(1-7)]
  activation of protein kinase B (AKT): triggered the activation of protein kinase B (AKT)
